According to patent US9834549B2, “3,3-disubstituted-(8-aza-bicyclo[3.2.1]OCT-8-yl)-[5-(1H-pyrazol-4-yl)-thiophen-3-yl]-methanones as inhibitors of 11 (β)-HSD1” (The University Of Edinburgh, priority 2010, dated 2017):
pIC50: −log10 of the molar value. Read-outs that look alike come from different tables or passages of the source.

What was measured:
Pharmacokinetics in rat = type: in vivo, male Sprague Dawley rats; details: male, Sprague Dawley, intravenous 1 mg/kg and oral 5 mg/kg; for bioavailability: blood, read-out: % F (% bioavailability); for clearance: plasma, read-out: Cl (plasma clearance)
Procedure: The pharmacokinetic parameters of certain compounds were determined following intravenous (1 mg/kg) and oral (5 mg/kg) administration to male Sprague Dawley rats. Dosing solution was prepared by mixing each compound with 2% DMSO, 38% PEG-400 and 60% (0.9%) NaCl. Solutions were passed through 0.2 μm filters prior to administration.
Following dosing and at appropriate time points, blood samples were taken from a lateral tail vein and transferred into a tube pre-treated with EDTA. Blood samples were analysed for parent compound by LCMS and the quantity of parent compound remaining determined. Non-compartmental analysis was applied to the data using WinNonlin™ software to determine the pharmacokinetic parameters for each compound.

[1] = Oral exposure and tissue distribution in rats; type: in vivo, male Sprague Dawley rats; details: rat, oral 10 mg/kg; for Cmax: male, Sprague Dawley, plasma, read-out: Plasma Cmax (maximum plasma concentration)
Procedure: The circulating plasma levels and tissue distribution of certain compounds were determined following oral administration of compound (10 mg/kg) to male Sprague Dawley rats. Rats (n=3 per group) were culled at 1, 4 and 6 hours post dosing and trunk blood and tissues (liver, adipose and brain) excised. Blood samples at 30 minutes and 2 hours post dosing were taken by tail nick from the 4 hour and 6 hour rats respectively.
Compound was triple extracted from plasma (prepared from blood by a high speed centrifugation step) spiked with 1 μg of a standard compound using ethyl acetate. Extracts were dried under nitrogen and re-suspended in 60% methanol/40% ammonium acetate (5 mM).
A known weight of tissue was homogenized in 3 volumes Krebs buffer. Compound was triple extracted with ethyl acetate from the supernatant of a low speed spin spiked with 1 μg of a standard compound. Extracts were dried under nitrogen and re-suspended in 60% methanol/40% ammonium acetate (5 mM).
(§1) Samples from plasma and tissue were analyzed by TSQ Quantum Discovery Tandem Mass Spectrometer and Surveyor Liquid Chromatogram (Thermo, Hemel-Hempstead, UK). 10 μL of each sample was injected in a mobile phase consisting of 60%:40% methanol:5 mM ammonium acetate at a flow rate of 0.5 mL/minute. The column used was a BDS hypersil, C18, 50×2.1 mm with a 5 μm particle size.
(§2) Each compound was tuned with a spray voltage of 3000 V and a capillary temperature of 300° C. and values for tube lens, CID and product ions were determined.
The peak area for each compound and for the internal standard was determined and the concentration of compound per gram of tissue or mL of plasma was calculated by comparison of the peak area ratio to a standard curve.

human 11β-HSD1 = biological target: T1, human 11β-HSD1 (Homo sapiens, UniProt P28845); assay: Cellular in vitro 11β-HSD1 enzyme inhibition assay (SPA, HEK293/11β-HSD1 cells); type: cell-based
T1 construct: stably transfected with a construct containing the full-length gene coding for the human 11β-HSD1 enzyme; expressed in transfected cells; host or cells: HEK293 (stably transfected, HEK293/11β-HSD1)
T1 sequence (P28845 whole entry): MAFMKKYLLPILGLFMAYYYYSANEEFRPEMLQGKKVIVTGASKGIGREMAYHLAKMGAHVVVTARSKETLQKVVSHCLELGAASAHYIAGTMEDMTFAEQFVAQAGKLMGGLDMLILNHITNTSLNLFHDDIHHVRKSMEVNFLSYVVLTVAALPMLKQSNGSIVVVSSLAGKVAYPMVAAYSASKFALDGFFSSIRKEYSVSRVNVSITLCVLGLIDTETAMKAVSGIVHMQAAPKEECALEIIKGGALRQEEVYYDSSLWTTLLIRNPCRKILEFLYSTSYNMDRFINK
Procedure: Compounds were assessed by a Scintillation Proximity Assay (SPA) performed according to the following protocol:
HEK293 cells were stably transfected with a construct containing the full-length gene coding for the human 11β-HSD1 enzyme to create HEK293/11β-HSD1 cells. Cells were routinely cultured in DMEM containing 10% calf foetal serum, 1% glutamine, and 1% penicillin and streptomycin. Prior to assay, cells were plated at 2×10^4 cells/well in 96-well poly-D-Lys coated flat-bottomed microplates and incubated in 5% CO2, 95% O2 at 37° C. for 24 hours. The media in each well was removed immediately before assay.
Compounds to be tested were dissolved in DMSO at 10 mM and serially diluted into water containing 10% DMSO. Diluted compounds at a volume of 10 μL were added to wells of a 96-well V-bottomed microplate. A solution of DMEM, 1% glutamine, 1% penicillin and streptomycin, and 22 nM tritiated cortisone was prepared and 90 μL added to each well of the assay plate. This solution (100 μL/well) was transferred to the plate containing the cells. The plate was then incubated in 5% CO2, 95% O2 at 37° C. for 2 hours.
Following this incubation, 50 μL of the assay solution was transferred to each well of a 96-well scintillation microplate. A mixture consisting of anti-mouse YSi SPA beads, pre-mixed with anti-cortisol antibody in assay buffer (50 mM Tris.HCl, pH 7.0; 300 mM NaCl; 1 mM EDTA, 5% glycerol) was prepared and 50 μL added to each well of the scintillation microplate. An adhesive strip was applied to the microplate and the plate gently shaken for at least 2 hours at room temperature, and then spun briefly on a low speed centrifuge. The plate was read on a scintillation counter suitable for 96-well microplates. For the calculation of percentage inhibition, a series of wells were added to the plate that represented the assay maximum and the assay minimum: one set that contained substrate without cells (minimum) and another set that contained substrate and cells without any compound (maximum).
The calculation of median inhibitory concentration (IC50) values for the compounds was performed using GraphPad Prism® software. Dose-response curves for each compound were plotted as fractional inhibition and data fitted to the four parameter logistic equation.

[2] = In vitro human liver microsomal stability assay; type: in vitro ADME; details: human liver microsomes
Procedure: To predict in vivo metabolism of compounds, the stability of compounds incubated with human liver microsomes in vitro was determined. Human liver microsome preparations were stored at −80° C. and thawed on ice prior to use. The thawed microsomes were diluted to a concentration of 2 mg/mL in 50 mM sodium phosphate, pH 7.4. Reference and test compounds were prepared as 10 mM stocks in 100% DMSO and diluted to 1 mM in acetonitrile before use. Each compound was tested in triplicate as follows:
4 μL of test or reference compound was added to a well of a 24-well microplate and 0.5 mL of 4 mM NADPH added. The plate was then transferred to a shaker for 10 minutes at room temperature. 30 μL of the compound/NADPH solution was transferred to the well of a 96-well microplate and incubated at 37° C. for 5 minutes. 30 μL of human liver microsomes (pre-incubated at 37° C. for 5 minutes) was added to the well containing the compound/NADPH solution and the plate incubated for the selected period of time (typically 0 or 30 minutes). The reaction was stopped by adding 60 μL of ice cold […] trichloroacetic acid. The plate was centrifuged at 1000 rpm for 5 minutes at room temperature and the supernatant transferred to the well of a new 96-well V-bottomed microplate for mass spectrometric analysis.
as §1, with “Samples” for “Samples from plasma and tissue”
as §2
The peak area for each compound was measured in triplicate for the 0 and 30 minute samples and the average of each was reported. The percentage remaining after 30 minutes was calculated as the average peak area of the sample after 30 minutes divided by the average peak area at 0 minutes. The RSD was 10% or lower for each compound.

[3] = HEK293, potency groups, read-out: IC50 for 11β-HSD1 (HEK293)
[4] = HEK293 cells transfected with human 11β-HSD1, first value in cell, read-out: IC50 for 11β-HSD1 (HEK293)
[5] = HEK293 cells, value marked * in brackets, read-out: IC50 for 11β-HSD1 (HEK293), (*) average of at least two individual experiments

Structure (SMILES)	bioavailability (Pharmacokinetics in rat) [%]	clearance (Pharmacokinetics in rat) [mL/min/kg]	Cmax [1] [ng/mL]	Liver Cmax (maximum liver concentration) [1]	pIC50 (human 11β-HSD1; [3])	pIC50 (human 11β-HSD1; [4])	pIC50 (human 11β-HSD1; [5])	% Parent Remaining at 30 min [2]
O=C(c1csc(-c2cn[nH]c2)c1)N1C2CCC1CC(O)(c1ncccn1)C2 (stereo not shown) [XX-20, (3-Hydroxy-3-pyrimidin-2-yl-8-aza-bicyclo[3.2.1]oct-8-yl)-[5-(1H-pyrazol-4-yl)-thiophen-3-yl]-methanone]	41 to 100	< 25	> 1000	+++ (>5001 +++)	≥ 7.00	7.17	7.38	+++ (61-100% +++)
O=C(c1csc(-c2cn[nH]c2)c1)N1C2CCC1CC(O)(c1nccs1)C2 (stereo not shown) [XX-29]	41 to 100	< 25	501 to 1000	++ (3001-5000 ++)	≥ 7.00	7.48	7.51	+++ (61-100% +++)
